Source: US9850283B2, “Macrocyclic inhibitors of the PD-1/PD-L1 and CD80(B7-1)/PD-L1 protein/protein interactions” (BRISTOL-MYERS SQUIBB COMPANY, priority 2013, dated 2017)
Where two headings read alike, the source gives them in different places. Starred links: 1 amine or outer side, 2 acyl side, 3 side chain; linkers in the order of their positions; H or OH if unused. Positions of bridges follow the written chain, without caps; N, C: chain ends. Non-standard residues stand in square brackets, D forms with d. Residues, ends and D or L forms follow the SMILES beside them. ξ: configuration not given here. X9 = O=C([C@@H]1C[C@@H](Oc2nc3ccccc3cc2Br)CN1[*:1])[*:2]; Bip = N[C@@H](Cc1ccc(-c2ccccc2)cc1)C(=O)O; cisHyp = O=C(O)[C@@H]1C[C@H](O)CN1; Hyp = O=C(O)[C@@H]1C[C@@H](O)CN1; NMeNle = CCCC[C@H](NC)C(=O)O; hSer = N[C@@H](CCO)C(=O)O; NMeA = CN[C@@H](C)C(=O)O; Orn = NCCC[C@H](N)C(=O)O; Dab = NCC[C@H](N)C(=O)O; Dap = NC[C@H](N)C(=O)O; ξC = NC(CS)C(=O)O; Sar = CNCC(=O)O

Assays:
[1] = molecular target: T1, LK35.2-hPD-L1 cells / PE-labeled PD-1-Ig (Homo sapiens, UniProt Q9NZQ7); test: LK35.2-hPD-L1 cell binding high-content screening assay; format: cell-based; conditions: cluster symbol, read-out: CBA IC50 cluster
T1 construct: expressed in transfected cells; host or cells: LK35.2 mouse B cell line
T1 sequence (Q9NZQ7 19-290): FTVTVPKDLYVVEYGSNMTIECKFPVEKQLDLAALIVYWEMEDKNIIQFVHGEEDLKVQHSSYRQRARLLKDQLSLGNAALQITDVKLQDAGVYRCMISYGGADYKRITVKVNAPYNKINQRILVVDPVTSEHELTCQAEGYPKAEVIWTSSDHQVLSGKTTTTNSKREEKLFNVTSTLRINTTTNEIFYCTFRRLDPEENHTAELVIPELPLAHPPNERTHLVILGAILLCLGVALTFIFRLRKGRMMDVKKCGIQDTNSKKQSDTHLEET
Summary of the method: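 Mouse LK35.2 B cells stably overexpressing human PD-L1 were cultured overnight in RPMI with 10% FCS, then given compound and PE-labeled human PD-1-Ig (1 nM final) for 1 h at 37 °C. After three dPBS washes, bound fluorescence was quantified by high-content imaging.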

[2] = molecular target: T2, Human PD-L1/PD-1 (Homo sapiens, UniProt Q9NZQ7); test: HTRF PD-1-Ig/PD-L1-His binding assay (human PD-L1); conditions: cluster symbol; read-out: HTRF IC50 cluster
T2 construct: made in house; host or cells: HEK293T
T2 sequence (Q9NZQ7 with tags, fused parts or gaps): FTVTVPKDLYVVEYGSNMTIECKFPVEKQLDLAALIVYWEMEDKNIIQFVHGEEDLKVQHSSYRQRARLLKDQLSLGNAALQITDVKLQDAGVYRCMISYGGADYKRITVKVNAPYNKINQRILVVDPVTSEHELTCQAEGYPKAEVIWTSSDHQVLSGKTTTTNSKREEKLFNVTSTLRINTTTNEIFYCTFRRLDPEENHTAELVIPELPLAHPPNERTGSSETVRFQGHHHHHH
Summary of the method: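 Interaction of Fc-tagged soluble PD-1 with His-tagged soluble PD-L1 is monitored by time-resolved FRET. Donor is europium cryptate anti-Ig (1 nM final) and acceptor is APC anti-His (20 nM final). Assay buffer is dPBS with 0.1% BSA and 0.05% Tween-20.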

[3] = cell binding assay, cell line not given
[4] = cell line of CBA not given (LK35.2-hPD-L1 or 293T-hPD-L1)

Compound | IC50 [1, 3] [nM] | IC50 [2] [nM] | IC50 [1, 4] [nM]
CCCC[C@H]1C(=O)N(C)[C@@H](CCCC)C(=O)N[C@@H](CC(C)C)C(=O)N[C@H](C(=O)NCC(N)=O)CSCC(=O)N[C@@H](Cc2ccc(O)cc2)C(=O)N(C)[C@@H](C)C(=O)N[C@@H](CC(N)=O)C(=O)N2CCC[C@H]2C(=O)N[C@@H](CN)C(=O)N[C@@H](CC(C)C)C(=O)N2C[C@H](Oc3nc4ccccc4cc3Br)C[C@H]2C(=O)N[C@@H](Cc2c[nH]c3ccccc23)C(=O)N[C@@H](CCN)C(=O)N[C@@H](Cc2c[nH]c3ccccc23)C(=O)N1C [Example 6049] ({CH2CO}-Y[NMeA]NP[Dap]L[X9]W[Dab]W[NMeNle][NMeNle]LCG-NH2; thioether N-14) | 4.78 to 72.9 | 0.385 to 6.74 | –
CC(C)C[C@@H]1NC(=O)[C@@H](Cc2c[nH]cn2)NC(=O)[C@@H]2CCCN2C(=O)[C@@H](CC(N)=O)NC(=O)C(C)N(C)C(=O)[C@H](Cc2ccc(O)cc2)NC(=O)CSC[C@H](C(=O)NCC(N)=O)NC(=O)[C@H](C)NC(=O)[C@@H](CC(=O)O)N(C)C(=O)[C@@H](CCCCN)N(C)C(=O)[C@H](Cc2c[nH]c3ccccc23)NC(=O)[C@H](CO)NC(=O)[C@@H](Cc2c[nH]c3ccccc23)NC(=O)C2C[C@@H](O)CN2C1=O (some centres unmarked) [Example 1221] | – | > 30.5 | > 74.3
CCCC[C@H]1C(=O)N(C)[C@@H](CCCC)C(=O)N[C@@H](CCCNC(=N)N)C(=O)NC(C(=O)NCC(N)=O)CSCC(=O)N[C@@H](Cc2ccc(O)cc2)C(=O)N(C)[C@@H](C)C(=O)N[C@@H](CC(N)=O)C(=O)N2CCC[C@H]2C(=O)N[C@@H](Cc2cnc[nH]2)C(=O)N[C@@H](CCO)C(=O)N2C[C@H](O)C[C@H]2C(=O)N[C@@H](Cc2c[nH]c3ccccc23)C(=O)N[C@@H](CO)C(=O)N[C@@H](Cc2c[nH]c3ccccc23)C(=O)N1C (some centres unmarked) [Example 9051] ({CH2CO}-Y[NMeA]NPH[hSer][Hyp]WSW[NMeNle][NMeNle]R[ξC]G-NH2; thioether N-14) | 0.158 to 4.71 | 6.76 to 30.3 | –
CCCC[C@H]1C(=O)N(C)[C@@H](CCCC)C(=O)N[C@@H](CO)C(=O)N[C@H](C(=O)NCC(N)=O)CSCC(=O)N[C@@H](Cc2ccc(O)cc2)C(=O)N(C)[C@@H](C)C(=O)N[C@@H](CO)C(=O)N2CCC[C@H]2C(=O)N[C@@H](CO)C(=O)N[C@@H](CO)C(=O)N2C[C@H](O)C[C@H]2C(=O)N[C@@H](Cc2c[nH]c3ccccc23)C(=O)N[C@@H](CO)C(=O)N[C@@H](Cc2c[nH]c3ccccc23)C(=O)N1C [Example 5135] ({CH2CO}-Y[NMeA]SPSS[Hyp]WSW[NMeNle][NMeNle]SCG-NH2; thioether N-14) | 4.78 to 72.9 | 6.76 to 30.3 | –
CCCC[C@H]1C(=O)N(C)[C@@H](CCCC)C(=O)N[C@@H](CCCNC(=N)N)C(=O)N[C@H](C(=O)NCC(N)=O)CSCC(=O)N[C@@H](Cc2ccc(O)cc2)C(=O)N(C)[C@@H](C)C(=O)N[C@@H](CCCN)C(=O)N2CCC[C@H]2C(=O)N[C@@H](C)C(=O)N[C@@H](CCC(=O)O)C(=O)N2C[C@@H](O)C[C@H]2C(=O)N[C@@H](Cc2c[nH]c3ccccc23)C(=O)N[C@@H](CO)C(=O)N[C@@H](Cc2c[nH]c3ccccc23)C(=O)N1C [Example 1147] ({CH2CO}-Y[NMeA][Orn]PAE[cisHyp]WSW[NMeNle][NMeNle]RCG-NH2; thioether N-14) | – | 6.76 to 30.3 | 4.78 to 72.9
CCCC[C@H]1C(=O)N(C)[C@@H](COc2cccc(C)c2)C(=O)N[C@@H](CCCNC(=N)N)C(=O)N[C@H](C(=O)NCC(N)=O)CSCC(=O)N[C@@H](Cc2ccc(O)cc2)C(=O)N(C)[C@@H](C)C(=O)N[C@@H](CC(N)=O)C(=O)N2CCC[C@H]2C(=O)N[C@@H](CN)C(=O)N[C@@H](CC(C)C)C(=O)N2C[C@H](O)C[C@H]2C(=O)N[C@@H](Cc2c[nH]c3ccccc23)C(=O)N[C@@H](CO)C(=O)N[C@@H](Cc2csc3ccccc23)C(=O)N1C [Example 5005] | 4.78 to 72.9 | 6.76 to 30.3 | –
CCCC[C@H]1C(=O)N(C)[C@@H](CCCC)C(=O)N[C@@H](CCCNC(=N)N)C(=O)N[C@H](C(=O)NCC(N)=O)CSCC(=O)N[C@@H](Cc2ccccc2)C(=O)N(C)[C@@H](C)C(=O)N[C@@H](CC(N)=O)C(=O)N2CCC[C@H]2C(=O)N[C@@H](Cc2cnc[nH]2)C(=O)N[C@@H](CC(C)C)C(=O)N(C)CC(=O)N[C@@H](Cc2ccc(-c3ccccc3)cc2)C(=O)N[C@@H](CO)C(=O)N[C@@H](Cc2c[nH]c3ccccc23)C(=O)N1C [Example 1007] ({CH2CO}-F[NMeA]NPHL[Sar][Bip]SW[NMeNle][NMeNle]RCG-NH2; thioether N-14) | – | > 30.5 | > 74.3
